US8217071B2, “Use of inhibitors of the degradation of p27, in particular Argyrin and derivatives thereof, for the treatment of proliferative diseases” (Helmholtz Zentrum für Infektionsforschung GmbH, priority 2007, dated 2012)
Values after ≈ are worked out from the molar mass of the structure shown. Numbered stars: 1 amine (or outer) side, 2 acyl side, 3 side chain; on linkers, the order of the positions; unused ones are H or OH. Square brackets hold non-standard residues; d marks the D form. Peptide text beside a SMILES is read from it. * marks the point of attachment. X1 = COc1cccc2[nH]c(C)c(C[C@H](N[*:1])C(=O)[*:2])c12; dAla(ψthiazole) = C[C@@H](N[*:1])c1nc(C(=O)[*:2])cs1; Trp(4-OMe) = COc1cccc2[nH]cc(C[CH](N)C(=O)O)c12; X2 = O=C(c1csc([C@@H](CO)N[*:1])n1)[*:2]; GlyΨ(Thz) = O=C(c1csc(CN[*:1])n1)[*:2]; dAbu = CC[C@@H](N)C(=O)O; Cbz = O=C(OCc1ccccc1)*; Dha = C=C(N)C(=O)O; Sar = CNCC(=O)O

How the values were obtained:
[1] = tested on: p27-GFP (clone H15GFP-p27, HeLa-cell line; cervix-carcinoma); experiment: GFP-fluorescence per FACS in clone H15GFP-p27; assay type: cell-based, human; conditions: GFP-fluorescence per FACS after 24 h incubation, 500 ng/ml
Excerpt: Human p27cDNA (in plasmid vector CS2+) was digested with EcoR1 and BamH1, and the resulting fragment was ligated after gel purification into the vector pEGFP-N1 (Clontech) that was cut with the same restriction enzymes. Thus, a […] fusion with the GFP as contained in the pEGFP-vector was generated. The plasmid was then transfected into Hela cells, and, following selection of the cells with kanamycin, cellular clones were isolated which had the plasmid integrated stably into their chromosome. The expression of the p27EGFP proteins was confirmed using Western blots and immune precipitations for both p27 and GFP.
(§1) The following table summarizes the effects of argyrin-derivatives A to H on two cancer cell lines, H15 (cervix carcinoma) and SW-480 (colon cancer). In order to test the efficacy, a p27-GFP-clone was used.

H15 (cervix carcinoma) = experiment: MIC (visual), serial dilution, H15; assay type: cell-based, human; conditions: minimal concentration of a serial dilution exhibiting a visual effect
Excerpt: as §1

SW-480 (colon cancer) = experiment: MIC (visual), serial dilution, SW-480; assay type: cell-based, human; conditions: minimal concentration of a serial dilution exhibiting a visual effect
Excerpt: as §1

[2] = tested on: SW-480 (colon cancer cell line); experiment: MTT-test proliferation of SW-480; assay type: cell-based, human; conditions: for IC-50 SW-480: half-maximal inhibition of proliferation
Description: (§2) MTT assays were done as previously described (Sasse, F. et al. Argyrins, immunosuppressive cyclic peptides from myxobacteria. I. Production, isolation, physico-chemical and biological properties. J Antibiot (Tokyo) 55, 543-51 (2002)). TUNEL staining of tissue sections was performed on 10 micrometer sections which were deparafinised and treated as recommended by the manufacturer. (In Situ Cell Death Detection Kit, Fluorescein; ROCHE, Cat #11 684 795 910). Flow cytometric analysis of cultured cells was done using a Becton Dickinson fluorescence cytometer as previously described (Malek, N. P. et al. A mouse knock-in model exposes sequential proteolytic pathways that regulate p27^Kip1 in G1 and S phase. Nature 413, 323-7 (2001)). Analysis of the distribution of cells in the cell cycle and the sub-G1 fraction was done using Cell Quest software. A histone-associated-DNA-fragments ELISA was used to determine the number of apoptotic cells according to manufacturers instructions (Roche #11 774425001).

[3] = tested on: mouse embryonic fibroblasts from p27^kip1 wildtype mice; experiment: Apoptosis (sub-G1 fraction) by flow cytometry in p27 wildtype MEF; assay type: cell-based; conditions: sub G1 fraction
Excerpt: (§3) Next the inventors tested whether the stabilization of p27 was indeed required for the apoptosis inducing function of Argyrin A or was merely a consequence of proteasome inhibition. For this the inventors treated immortalized mouse embryonic fibroblasts from p27^kip1 wildtype or knockout mice with Argyrin A or the proteasome inhibitor bortezomib and assayed cell cycle distribution and apoptosis by flow cytometry. […] These differences in sensitivity in response to Argyrin A treatment were not due to differences in the accumulation of other proteasomal substrates in p27 wildtype and knockout cells as p53 and p21 levels increased in both cell lines in response to Argyrin A (FIG. 6B). To extend this observation to human cancer cells the inventors reduced the levels of p27^kip1 in HeLa cells using p27^kip1 specific siRNA.
(§4) The results shown are the average numbers for six independent experiments. b+d) Wildtype (b) and p27 knockout (d) MEF were treated with Argyrin A or transfected with siRNAs specific for the β1, β2 or β5 subunit of the proteasome for 24 hours. The graphs show the remaining catalytic activity of the different proteasome subunits after Argyrin A or siRNA treatment compared to an untreated control (n=3). The western blots show the expression of the β1, β2 or β5 subunit of the proteasome in proliferating cells and after treatment with siRNAs for a representative experiment. c+e) Flow cytometric measurements of the number of apoptotic cells (sub-G1 fraction) after Argyrin A or siRNA treatment in wildtype (c) or p27 knockout (E) MEF. f) HeLa cells were treated with Argyrin A or siRNA against p27 or Argyrin A and siRNA against p27 for either 24 or 48 hours.
as §2

[4] = tested on: mouse embryonic fibroblasts from p27^kip1 knockout mice; experiment: Apoptosis (sub-G1 fraction) by flow cytometry in p27 knockout MEF; assay type: cell-based; conditions: sub G1 fraction
Excerpt: as §3, §4, §2

| Structure (SMILES) | Mean of FSC-H (Log) H15 p27-GFP-clone [1] | MIC (visual) H15 (H15 (cervix carcinoma)) [µg/mL] | MIC (visual) SW-480 (SW-480 (colon cancer)) [µg/mL] | IC50 ([2]; Homo sapiens, SW480, half-maximal inhibition of proliferation, read-out: IC-50 SW-480) [µg/mL] | IC-50 SW-480 [2] | apoptosis in p27 wildtype MEF [3] | apoptosis in p27 knockout MEF [4] |
| --- | --- | --- | --- | --- | --- | --- | --- |
| C=C1NC(=O)[C@@H](CC)NC(=O)CNC(=O)[C@H](Cc2c[nH]c3cccc(OC)c23)NC(=O)[C@H](Cc2c[nH]c3ccccc23)NC(=O)c2csc(n2)[C@@H](C)NC(=O)CN(C)C1=O [Argyrin B, argyrin B] (cyclo([Dha][Sar][dAla(ψthiazole)]W[Trp(4-OMe)]G[dAbu])) | 7.60 | 12 (≈ 14.3 µM) | 12 (≈ 14.3 µM) | ~0.05 (≈ 0.0596 µM) |  |  |  |
| C=C1NC(=O)[C@@H](C)NC(=O)CNC(=O)[C@H](Cc2c(C)[nH]c3cccc(OC)c23)NC(=O)[C@H](Cc2c[nH]c3ccccc23)NC(=O)c2csc(n2)[C@@H](C)NC(=O)CN(C)C1=O [Argyrin C] (cyclo(W[X1]G[dA][Dha][Sar][dAla(ψthiazole)])) | 7.36 | 37 (≈ 44.1 µM) | 37 (≈ 44.1 µM) |  | Ca. 0.05 μg/ml |  |  |
| C=C1NC(=O)[C@@H](CC)NC(=O)CNC(=O)[C@H](Cc2c(C)[nH]c3cccc(OC)c23)NC(=O)[C@H](Cc2c[nH]c3ccccc23)NC(=O)c2csc(n2)[C@@H](C)NC(=O)CN(C)C1=O [Argyrin D] (cyclo(W[X1]G[dAbu][Dha][Sar][dAla(ψthiazole)])) | 7.69 | 12 (≈ 14.1 µM) | 37 (≈ 43.4 µM) |  | Ca. 0.05 μg/ml |  |  |
| C=C1NC(=O)[C@@H](C)NC(=O)CNC(=O)[C@H](Cc2c[nH]c3cccc(OC)c23)NC(=O)[C@H](Cc2c[nH]c3ccccc23)NC(=O)c2csc(n2)[C@@H](CO)NC(=O)CN(C)C1=O [Argyrin F, argyrin F] (cyclo([Dha][Sar][X2]W[Trp(4-OMe)]G[dA])) | 11.24 | 0.5 (≈ 0.595 µM) | 0.2 (≈ 0.238 µM) |  | 0.05 µg/mL |  |  |
| C=C1NC(=O)C(C)NC(=O)CNC(=O)C(Cc2c[nH]c3cccc(OC)c23)NC(=O)C(Cc2c[nH]c3ccccc23)NC(=O)c2csc(n2)CNC(=O)CN(C)C1=O (stereo not drawn) [Argyrin H] (cyclo([Dha][Sar][GlyΨ(Thz)]W[Trp(4-OMe)]GA); configuration not given here) |  | 37 (≈ 45.6 µM) | 37 (≈ 45.6 µM) |  | Ca. 0.5 μg/ml |  |  |
| CC(C)C[C@@H](C=O)NC(=O)[C@H](CC(C)C)NC(=O)[C@H](CC(C)C)NC(=O)OCc1ccccc1 [MG132] (Cbz-Leu-Leu-Leu-aldehyde) |  |  |  |  |  | same response | same response |
